Experimental data: patent US20120137390A1, “MATERIALS AND METHODS FOR REGENERATION AND TRANSFORMATION OF TREES” (ArborGen Inc., priority 2009, published 2012)

How the values were obtained:
Assay type in all cases: cell-based
[1] = tested on: E. grandis clone 6084 explants; assay: Adventitious shoot regeneration from explants on regeneration medium, clone 6084
Description: (§1) Plant Materials and culture conditions. All elite clones were maintained as shoot clumps in Eucalyptus maintenance (EM) medium (Table 1) in magenta boxes or large disposable vessels and subcultured every 4-6 weeks. Shoot clumps were divided as needed and maintained as stock culture. Unless noted otherwise, all cultures were grown under shaded, cool fluorescent light with a light intensity of 30-40 gE/m^2/s with a photoperiod of 16 hours, and a temperature of 21° C.
(§2) Although leaves, petioles, internodes, floral tissues, and embryogenic tissues can be used for transformation and subsequent regeneration, leaf explants were selected because leaves are abundant. For transformation, explants of E. grandis clones 6075 and 6084 were incubated with Agrobacterium and were placed on co-culture medium, which was the same as the regeneration medium (Table 2) except with the following modifications: the addition of Agrobacterium inducer acetosyringone and the addition of plant growth regulators that are enriched in auxin. MS medium (Murashige and Skoog 1962) was used in the present co-culture medium; however, other salt media, such as Woody Plant Medium (WPM) salts (Loyd and McCown, 1980) or Lepoivre medium, may be used. Also, other Agrobacterium inducers may be used. Plant explants were co-cultured for four days under low light conditions or in the dark on the co-culture medium.
(§3) To test the ability of various cytokinins to stimulate adventitious regeneration, the effects of 4-CPPU, Zeatin, TDZ, meta-topolin, and adenine sulfate were compared. The levels of cytokinins varied from 0.025 to 10 μM. The base medium for this matrix is named H2—2.0 (or H2—2 for short), which is the primary MS-based regeneration medium (Table 2). The medium has been effective to induce shoot regeneration from many Eucalyptus species including E. grandis, E. dunnii, E. camaldulensis, E. urophylla, E. occidentalis, and E. saligna. The antibiotic timentin was added at 250 mg/L final concentration. Shoot regeneration was measured as the frequency of explants produced shoots. Explants were cultured on the regeneration medium for about 8-10 weeks before collection of final regeneration data.

[2] = tested on: E. grandis clone 6075 explants; assay: Adventitious shoot regeneration from explants on regeneration medium, clone 6075
Description: as §1, §2, §3

[3] = tested on: E. urophylla X grandis S-519; assay: Regeneration screening matrix, clone S-519; settings: meta-topolin at least 2.5 μM, clone S519
Description: as §3
(§4) Combinations of meta-mopolin, 4-CPPU, and TDZ that gave the best regeneration across multiple experiments were combined with two standard regeneration media that have worked with other clones in the past to become a regeneration screening matrix for new clonal material.

[4] = tested on: E. amplifolia clone EA5490; assay: Regeneration screening matrix, clone EA5490; settings: meta-topolin at least 2.5 μM
Description: as §3, §4

[5] = lower concentrations of 4-CPPU (0.025, 0.05 μM)

## O=C(Nc1ccccc1)Nc1ccnc(Cl)c1 [4-CPPU, N-(2-Chloro-4-pyridyl)-N′-phenylurea]
[1]; 4-CPPU at 0.1 μM
  adventitious shoot formation (in words): effective
[1]; [5]
  adventitious shoot formation (in words): not effective in induce adventitious shoot formation
[2]; 4-CPPU at 0.1 μM
  adventitious shoot formation (in words): effective
[2]; [5]
  adventitious shoot formation (in words): not effective in induce adventitious shoot formation

## O=C(Nc1ccccc1)Nc1cnns1 [TDZ, 1-phenyl-3-(1,2,3-thiadiazol-5-yl)urea]
[1]; TDZ alone at 0.1 μM
  promotion of shoot regeneration (in words): not effective in promotion of shoot regeneration
[2]; TDZ alone at 0.1 μM
  promotion of shoot regeneration (in words): not effective in promotion of shoot regeneration

## Oc1cccc(CNc2ncnc3nc[nH]c23)c1 [meta-topolin, N^6-(meta-hydroxybenzyl)adenine]
[1]; meta-topolin at least 2.5 μM
  adventitious shoot formation (in words): significant increase in adventitious shoot formation
[2]; meta-topolin at least 2.5 μM
  adventitious shoot formation (in words): significant increase in adventitious shoot formation
[3]
  adventitious shoot regeneration (in words): significantly higher adventitious shoot regeneration
[4]
  adventitious shoot regeneration (in words): significantly higher adventitious shoot regeneration
